The source of these data is patent US20160339079A1, “TRANSMUCOSAL AND TRANSEPITHELIAL DRUG DELIVERY SYSTEM” (UNIVERSITY OF BIRMINGHAM, priority 2014, published 2016).

In data set [1] the test system is primary rat meningeal fibroblast cells. The format is cell-based, Sprague-Dawley Rats. As to the method: The nanosome toxicity was also tested against primary rat meningeal fibroblast cells. The cells were isolated from Sprague-Dawley Rats. The leptomeninges was removed from the rat and the meningeal fibroblast cells were isolated from the tissue. The cells were then plated out and treated with nanosome. The cell media was supplemented with resazurin for 2 hours and then harvested and the media fluorescence read at 570 nm. The cell samples were then frozen in deionised water for DNA analysis (FIG. 7). […] This supports the work carried out in the retinal cultures that the nanosomes are not toxic.

A further data set relates to Retinal Ganglion Cells. The format is cell-based, rats. The protocol:
The cells were studied against several cell lines for any cytotoxic effects they might induce. Dissociated retinal cultures were prepared from rats and plated onto culture plates. The cells were treated with nanosome peptide and then incubated for 72 hours and fixed with formaldehyde. The cells were stained with β3 tubulin and imaged on the fluorescence microscope. The positive cells were counted and comparisons were taken.

Data set [2] concerns gram positive and gram negative bacteria. Description: Broad spectrum antibacterial activity. Type of data set: cell-based. The settings on record: both gram positive and gram negative bacteria. As to the method:
It is effective at killing both gram positive and gram negative bacteria and was particularly selective against pseudomonas aeruginosa with a MIC of 0.03 mg/mL.

For `N=C(N)NCCC[C@H](NC(=O)[C@H](CCCNC(=N)N)NC(=O)[C@H](CCCNC(=N)N)NC(=O)[C@H](CCCNC(=N)N)NC(=O)[C@H](CCCNC(=N)N)NC(=O)[C@H](CCCNC(=N)N)NC(=O)CCCCCNC(=S)Nc1ccc2c(c1)C(=O)OC21c2ccc(O)cc2Oc2cc(O)ccc21)C(=O)O` [nanosome, RRRRRR-Linker-FITC], the “effect on the number of cells in the sample (DNA assay)” value in data set [1] is on record as “did not have a significant effect”. Further, the “β3 tubulin positive cells, treated wells versus control” value in the data set on Retinal Ganglion Cells is recorded as “no significant difference”. Besides, the killing of bacteria entry in data set [2] is on record as “highly effective broad spectrum antibacterial agent”.
